The source of these data is PubChem BioAssay AID2305 (GlaxoSmithKline (GSK), 2010).

pIC50: −log10 of the molar value.

In general, pIC50 refers to the IC50 on a negative log10 scale, so that one unit is a factor of ten.

For this assay, the system named is P. falciparum 3D7 growth, pLDH absorbance. Kind of assay: P. falciparum 3D7 growth inhibition, dose response, strain 3D7 (AID 2305).

For `O=C(N1CCN(c2ccnc3cc4c(cc23)N(Cc2ccccc2)CC4)CC1)C(F)(F)F`, the pIC50 was 6.59.
Molecule `COc1ccc2nccc([C@@H](O)CN3CCC(NCc4cc5cc(OC(F)(F)F)ccc5[nH]4)CC3)c2c1` showed a pIC50 of 6.89.
As to `COc1cc(NC(=O)N2CCOC(CCN3CCC4(CCc5ccccc54)CC3)(c3ccc(Cl)c(Cl)c3)C2)cc(OC)c1OC` (stereo unspecified), the pIC50 was 6.80.
To `Cc1cc(NCCc2ccccc2)nc(NC(=NCC(=O)OC(C)(C)C)Nc2ccc(C(F)(F)F)cc2)n1` belongs 6.48.
Molecule `OCc1ccc(-c2cncc(Nc3ccc(F)c(Cl)c3)c2)cc1` showed a pIC50 of 7.05.
In turn, `COc1cc(C(=O)NC2CCN(Cc3ccccc3)CC2)ccc1-c1nc2cc(Cl)c(C)cc2[nH]1` showed a pIC50 of 6.52.
The value for `Cn1nccc1C(=O)NCCNCc1ccc(-c2ccc(-c3nc4ccc(C(F)(F)F)cc4[nH]3)s2)cc1` was 6.72; that for `COc1ccc(CNCc2ccc(-c3ccc(CNCCc4ccccc4)cn3)cc2)cn1` was 6.00; that for `CN1CCN(c2cc(NC(=O)Nc3cccc(Cl)c3Cl)ccc2Cl)CC1` was 6.14.
To `CN(C(=O)NCCc1ccccc1)C1CCN(CCCCCNC(=O)/C=C/c2ccc(Cl)c(Cl)c2)CC1` belongs 6.17; to `O=[N+]([O-])c1ccc(Nc2nc(NN=Cc3cccc(O)c3)nc(N3CCCC3)n2)cc1`, 5.97.
The molecule `COc1ccc2ccccc2c1C=NNc1cc(C)nc2cc(C(F)(F)F)ccc12` had a pIC50 of 5.98.
For `CN(Cc1cccc(F)c1)C1CCN(c2cc(NC(=O)c3cccc(F)c3)ccn2)CC1`, the pIC50 is 5.94.
`NC12CC3CC(CC(C3)C1)C2` showed a pIC50 of 6.80.
On to `CN(C)CC(O)COc1ccc(Nc2ncc([N+](=O)[O-])c(Nc3ccccc3O)n2)cc1` (stereo unspecified), for which the pIC50 is 6.12.
The molecule `CC(=O)c1ccc2cc(C(=O)NC3CCC(CCN4CCc5ccc(-c6noc(C)n6)cc5CC4)CC3)[nH]c2c1` (stereo unspecified) showed a pIC50 of 6.02.
Consider `O=C(Nc1ccc(Cl)cc1)Nc1cccc(-c2cccc(-c3nc4ccc(C(F)(F)F)cc4[nH]3)c2)c1`, for which the pIC50 is 6.64.
With `COc1ccc(Cc2c(Cl)nc3nc(N)nc(N)c3c2C)c(OC)c1OC`, the pIC50 was 6.14.
`CN(C)CCCNc1ncnc2c1[nH]c1ccc(Br)cc12` gave a pIC50 of 6.49.
The molecule `CCOc1ccc(N2CCN(CCCCNC(=O)c3ccc(NC(=O)c4ccc(Cl)cc4)cc3)CC2)c(OCC)c1` showed a pIC50 of 6.24.
In turn, `COc1ccccc1C(=O)Nc1ccc(Nc2nc(C)cc(N(C)C)n2)cc1` showed a pIC50 of 6.10.
In turn, `CC1(C)CN2CCCC2c2cc(NC(=O)/C=C/c3ccccc3Cl)ccc21` (stereo unspecified) showed a pIC50 of 6.00.
The value for `O=C(Nc1ccc2c(c1)CCC2)N[C@H]1CCN(CCCCCNC(=O)[C@@H]2C[C@H]2c2ccc(Cl)c(Cl)c2)C1` was 5.97.
`Cc1cccc2[nH]c(-c3cccc(-c4ccc(NC(=O)NCc5cccc(F)c5)cc4)c3)nc12` showed a pIC50 of 6.62.
The molecule `CN(C)c1cc(NC(=O)Nc2ccc(SC(F)(F)F)cc2)c2ccccc2n1` had a pIC50 of 6.85.
In turn, `Cc1cc(Nc2ncc3c(n2)N(C2CCC2)CC3)ccc1N1CCN(C)CC1` gave a pIC50 of 5.92.
The value for `Cc1ccccc1C1CCN(C2CCC(NC(=O)c3cc4cc(C(C)C)ccc4[nH]3)CC2)CC1` (stereo unspecified) was 6.16; that for `CC(C)NCc1ccc(-c2ccc(NS(=O)(=O)c3cccc4cccnc34)cc2)cc1` was 6.09; that for `CN(C)CCCNCc1ccc(-c2ccc(F)c(Cl)c2)o1` was 6.10.
In turn, `Cc1c(C(=O)N2CCCC(C(F)(F)F)C2)sc2cccc(F)c12` (stereo unspecified) gave a pIC50 of 6.22.
`Cc1ccc(NC(=O)c2ccc3ncccc3c2)cc1OC1CCN(CCC(C)C)C1` (stereo unspecified) gave a pIC50 of 6.46.
Consider `NC(=O)c1ccccc1OCC(=O)Nc1cccc(-c2cccc(-c3nc4ccccc4[nH]3)c2)c1`, for which the pIC50 was 6.42.
In turn, `Cc1nn(C)c(C)c1CN(Cc1nc(-c2cccc(Oc3ccccc3)c2)oc1C)C1CC1` gave a negative-log IC50 (pIC50) of 6.41.
The value for `O=S(=O)(Nc1cc2c(cc1O)CCN(C1CCC1)CC2)c1ccc(Oc2ccc(F)cc2)cc1` was 6.11.
The value for `O=C(N[C@@H](Cc1ccccc1)C(=O)NCCN1CCOCC1)c1ccc(O)c(-c2ccc(Cl)c(Cl)c2)c1` was 6.04; that for `COc1ccccc1CCC(C)(C)NC(=O)CC(CCc1ccccc1)Nc1ccc(C#N)c2ccccc12` (stereo unspecified) was 6.04.
`CCC(CO)NCC(O)Cn1c2ccc(Br)cc2c2cc(Br)ccc21` (stereo unspecified) gave a pIC50 of 6.11.
Take `COc1ccc(-c2ccc(NC(=O)c3cccc(C#N)c3)cc2)cc1CN1CCCN(C)CC1`: the pIC50 was 6.54.
On to `CC(C)(C)c1ccc2nc(-c3ccc(/C=C/C(=O)NCc4cccc(C(F)(F)F)c4)cc3)[nH]c2c1`, for which the pIC50 was 6.00.
As to `CCC(=O)NC(c1ccco1)c1cc(Cl)c2cccnc2c1O` (stereo unspecified), the pIC50 is 6.06.
The value for `Cc1cc(C)cc(OCC(O)CN(Cc2cc(Cl)cc(Cl)c2)C(=O)Nc2ccc(Cl)cc2)c1` (stereo unspecified) was 6.09; that for `COc1ccc(-c2c3c(=O)n(C)c(=O)n(C)c3c3nnc4ccccc4n23)cc1` was 6.00; that for `CC(CO)(CO)NCc1cc2c3ccccc3c(CNC(C)(CO)CO)cc2c2ccccc12` was 6.14.
With `COc1cc2nc(N(C)C)nc(Nc3ccc4c(cnn4Cc4ccccc4)c3)c2cc1OC`, the negative-log IC50 (pIC50) was 7.40.
On to `O=C(Nc1nc2cc(S(=O)(=O)NCc3ccc(Cl)c(Cl)c3)ccc2n1CCCn1ccnc1)c1ccc(Cl)cc1`, for which the pIC50 was 6.14.
`CC(CN=C(N)c1cccc(C(N)=NCC(C)Oc2cccc(C3CCCCC3)c2)n1)Oc1cccc(C2CCCCC2)c1` (stereo unspecified) had a pIC50 of 6.04.
To `CCCNCc1ccc(-c2ccc(CN(CCOC)C(=O)Cc3cccnc3)cc2)nc1` belongs 6.09.
As to `CCCCCC(C)C(C)c1cc(O)c2c(c1)OC(C)(C)CC2(O)c1ccnn1C` (stereo unspecified), the pIC50 is 6.02.
As to `CN(CCN)Cc1ccc(-c2ccc(-c3nc4ccc(C(F)(F)F)cc4[nH]3)s2)cc1`, the negative-log IC50 (pIC50) is 6.21.
`O=S(=O)(Nc1ccc(CCN2CCCCC2CCN2CCCC2)cc1)c1ccc(-c2ccccc2)cc1` (stereo unspecified) gave a pIC50 of 6.03.
With `O=S(=O)(Nc1cccc(CCN2CCC(N3CCCCC3)CC2)c1)c1ccc(Oc2ccccc2)nc1`, the pIC50 was 6.03.
For the molecule `CCc1c(CCNCCCC(C)CCNCCc2ccc(OC)c(OC)c2CC)ccc(OC)c1OC` (stereo unspecified), the pIC50 is 5.95.
Turning to `CC(=O)N(Cc1nc(-c2cc(Cl)c(Cl)s2)cs1)c1c(C)cccc1C`, the pIC50 was 6.48.
The molecule `CCC(C)NCc1c(O)ccc2c(CNC(C)CC)c(O)ccc12` (stereo unspecified) had a pIC50 of 6.23.
Take `Cc1nc2nc(N)nc(N)c2c(C)c1Cc1ccccc1Br`: the pIC50 was 7.22.
With `COc1cc2nc(NCCC(C)C)n3nc(-c4ccccc4)nc3c2cc1OC`, the pIC50 is 6.38.
With `CN(C)CCOc1cc(NC(=O)Nc2ccc(-c3ccccc3)cc2)ccc1I`, the pIC50 was 6.22.
With `Cc1ccccc1C1CCN(C2CCC(NC(=O)c3ccc(-c4cccc(C(F)(F)F)c4)o3)CC2)CC1` (stereo unspecified), the pIC50 is 6.46.
`CCCC(=O)NC(c1ccc(C)cc1)c1ccc2cccnc2c1O` (stereo unspecified) had a pIC50 of 6.02.
To `Cc1ccc(Cn2ncc(N3CCC(N)CC3)c(Cl)c2=O)cc1NC(=O)Nc1ccc(-c2ccccc2)cc1` belongs 6.04; to `O=C(CCc1cnc[nH]1)Nc1ccc(-c2ccc(-c3nc4ccc(F)cc4[nH]3)cc2)cc1`, 6.16.
Turning to `N#Cc1ccc(NC(=O)Nc2ccc3c(c2)CCN(C2CCC2)CC3)cc1`, the pIC50 was 6.20.
As for `Cc1[nH]cnc1CSCCNC(N)=NCCCCCCCCN=C(N)NCCSCc1nc[nH]c1C`, the pIC50 was 6.57.
On to `COc1ccc2c(c1)c(C1CCN(CCCCNC(=O)c3ccc(-c4ccc(C(F)(F)F)cc4)cc3)CC1)cn2C(C)C`, for which the pIC50 is 6.14.
In turn, `CN(C)CCOc1ccc2c(c1)CN(C)CC2c1ccccc1` (stereo unspecified) showed a pIC50 of 5.95.
On to `CN1CCN(Cc2ccc(-c3cccc(-c4nc5ccccc5[nH]4)c3)cc2)CC1`, for which the pIC50 was 5.86.
On to `CC[C@H](NC(=O)c1c(CN2CCC(N3CCCCC3)CC2)c(-c2ccccc2)nc2c(Cl)c(O)ccc12)c1ccccc1`, for which the pIC50 was 6.14.
The molecule `Cc1nc2nc(N)nc(N)c2c(C)c1Cc1ccc(N)cc1` had a pIC50 of 6.19.
To `CC(Cc1ccc(CN2CCN(Cc3ccccc3)CC2)cc1)NCC(O)c1cccc(C(F)(F)F)c1` (stereo unspecified) belongs 6.05; to `O=S(=O)(NC1CCC(CN2CCC(c3c[nH]c4ccccc34)CC2)CC1)c1ccc(Cl)c(Cl)c1` (stereo unspecified), 6.09.
Turning to `CN(c1ccc2c(c1)nc(NC(=O)C1(c3cc(F)ccc3F)CC1)n2C)c1ccnc(Nc2cccc(CS(C)(=O)=O)c2)n1`, the pIC50 is 5.96.
To `Cc1ccc(NC(=O)Nc2ccc(Cl)cc2)cc1-c1ccc(C(=O)Nc2ccncc2)cc1` belongs 6.28; to `COc1ccc(CN2CCC(NCc3ccc(C(F)(F)F)cc3)CC2)cc1`, 6.04.
To `Cc1cc(N(C)C2CCN(C)CC2)nc(Nc2ccc(Cl)cc2)n1` belongs 6.54; to `CCCCCCC(C)c1cc(O)c2c(c1)OC(=O)CC2(CC)c1ccccn1` (stereo unspecified), 6.48.
The value for `CCCC(CNCc1cccc(I)c1)CNc1cc(=O)c2ccccc2[nH]1` (stereo unspecified) was 6.33; that for `O=C(/C=C/c1ccc(Cl)c(Cl)c1)NCCCCCN1CCN(C(=O)Nc2ccc(C(F)(F)F)cc2)CC1` was 6.14; that for `COc1cccc(C(=O)NCCOc2ccccc2)c1Oc1ccccc1` was 6.04.
The molecule `N#Cc1ccc(CN2CCCN(Cc3cccc(NC(=O)c4cc5ccccc5s4)c3)CC2)cc1` had a pIC50 of 6.04.
Molecule `COc1ccc(-c2cc(C(=O)Nc3ccc(CCCN(C)Cc4ccc(OC)c(OC)c4)cc3)c3ccccc3n2)cc1` showed a pIC50 of 6.15.
Molecule `CC(C)c1cc(N)c2cc(NC(=O)COCC(=O)Nc3ccc4nc(C(C)C)cc(N)c4c3)ccc2n1` had a pIC50 of 6.66.
Take `Cc1cccc(NC(=S)NC2CCN(CCCCCNC(=O)/C=C/c3ccc(Cl)c(Cl)c3)CC2)c1`: the pIC50 was 6.02.
In turn, `CN1c2ccccc2Sc2cc(CNCCSCCNCc3ccc4c(c3)Sc3ccccc3N4C)ccc21` had a pIC50 of 6.00.
For the molecule `Cc1noc(C)c1CN1CCCN(c2ccc3c(c2)CCN(Cc2ccc(-c4ncc[nH]4)cc2)CC3)CC1`, the pIC50 was 6.07.
Consider `CC(C)C1=C[C@H]2C[C@]3(C4OCCO4)[C@@H]4CC[C@@H](C)[C@H]4C[C@@]2(COCc2cccc(C#N)c2)[C@]13C(=O)OC(c1ccccc1)c1ccccc1`, for which the pIC50 is 5.75.
To `O=C(C=Cc1ccc(Cl)c(Cl)c1)NCCCCCN1CCCC(CCCNS(=O)(=O)c2cccc(C(F)(F)F)c2)C1` (stereo unspecified) belongs 6.02.
